Data from patent US8426441B2, “Inhibitors of bruton's tyrosine kinase” (Roche Palo Alto LLC, priority 2007, dated 2013).

SMILES	melting point
Cc1c(NC(=O)c2ccc(C(C)(C)C)cc2)cccc1-c1cc(NC(=O)NC(C)(C)C)c2nccn2n1 [Example I-10, 4-tert-Butyl-N-{3-[8-(3-tert-butyl-ureido)-imidazo[1,2-b]pyridazin-6-yl]-2-methyl-phenyl}-benzamide]	191 to 193 °C
C1=C(c2cc(Nc3ccccn3)c3nccn3n2)CCCC1 [Example I-3, (6-Cyclohex-1-enyl-imidazo[1,2-b]pyridazin-8-yl)-pyridin-2-yl-amine]	160.7 to 161.5 °C
CNC(=O)Nc1cc(-c2ccccc2)cn2ccnc12 [Example I-61, 1-Methyl-3-(6-phenyl-imidazo[1,2-a]pyridin-8-yl)-urea]	69 to 70 °C
Cc1c(NC(=O)c2ccc(C(C)(C)C)cc2)cccc1-c1cc(NC(=O)NC(C)C)c2nccn2n1 [Example I-6, 4-tert-Butyl-N-{3-[8-(3-isopropyl-ureido)-imidazo[1,2-b]pyridazin-6-yl]-2-methyl-phenyl}-benzamide]	178 to 180 °C
CNC(=O)Nc1cc(-c2cccc(CC(=O)NCC#CC(C)(C)C)c2)cn2ccnc12 [Example I-99, N-(4,4-Dimethyl-pent-2-ynyl)-2-{3-[8-(3-methyl-ureido)-imidazo[1,2-a]pyridin-6-yl]-phenyl}-acetamide]	129 to 130 °C
Cc1c(NC(=O)N2CC(OC(C)(C)C)C2)cccc1-c1cc(NC(=O)NCCCN(C)C)c2nccn2c1 [Example I-70, 3-tert-Butoxy-azetidine-1-carboxylic acid {3-{8-[3-(3-dimethylamino-propyl)-ureido]-imidazo[1,2-a]pyridin-6-yl}-2-methyl-phenyl)-amide]	129 to 130 °C

More lines, now with the values ahead:

melting point	SMILES
147.1 to 151.7 °C	CNC(=O)Nc1cc(-c2cccc(NC(=O)c3ccc(OC(C)C)cc3)c2C)cn2ccnc12 [Example I-81, 4-Isopropoxy-N-[2-methyl-3-[8-(3-methyl-ureido)-imidazo[1,2-a]pyridin-6-yl]-phenyl}-benzamide]
190.2 to 209.7 °C	Cc1c(NC(=O)c2ccc(N(C)C)cc2)cccc1-c1cc(NC(=O)NCCCN2CCOCC2)c2nccn2c1 [Example I-68, 4-Dimethylamino-N-(2-methyl-3-{8-[3-(3-morpholin-4-yl-propyl)-ureido]-imidazo[1,2-a]pyridin-6-yl}-phenyl)-benzamide]
167 to 168 °C	Cc1c(NC(=O)c2ccc(C(C)(C)C)cc2)cccc1-c1cc(NC(=O)NCCCN2CCN(C)CC2)c2nccn2c1 [Example I-94, 4-tert-Butyl-N-[2-methyl-3-(8-{3-[3-(4-methyl-piperazin-1-yl)-propyl]-ureido}-imidazo[1,2-a]pyridin-6-yl)-phenyl]-benzamide]
132 to 133 °C	CC(=O)Nc1cc(-c2cccc(NC(=O)c3ccc(C(C)(C)C)cc3)c2C)cn2ccnc12 [Example I-57, N-[3-(8-Acetylamino-imidazo[1,2-a]pyridin-6-yl)-2-methyl-phenyl]-4-tert-butyl-benzamide]
99 to 100 °C	CCC(=O)Nc1cc(-c2cccc(NC(=O)c3ccc(C(C)(C)C)cc3)c2C)cn2ccnc12 [Example I-54, 4-tert-Butyl-N-[2-methyl-3-(8-propionylamino-imidazo[1,2-a]pyridin-6-yl)-phenyl]-benzamide]
144.1 to 188.6 °C	Cc1c(NC(=O)c2ccc(N(C)C)cc2)cccc1-c1cc(NC(=O)NCCCO)c2nccn2c1 [Example I-69, 4-Dimethylamino-N-(3-{8-[3-(3-hydroxy-propyl)-ureido]-imidazo[1,2-a]pyridin-6-yl}-2-methyl-phenyl)-benzamide]
143.5 to 154.4 °C	CNC(=O)Nc1cc(-c2cccc(NC(=O)c3ccc([Si](C)(C)C)cc3)c2C)cn2ccnc12
153.7 to 164.4 °C	Cc1c(NC(=O)c2ccc(N(C)C)cc2)cccc1-c1cc(NC(=O)NCCO)c2nccn2c1 [Example I-64, 4-Dimethylamino-N-(3-{8-[3-(2-hydroxy-ethyl)-ureido]-imidazo[1,2-a]pyridin-6-yl}-2-methyl-phenyl)-benzamide]
